The nature of data set [1]: Dynamic vapor sorption (DVS) hygroscopicity. In kind it is physicochemical. The settings on record: 25 °C.
Method: The DVS profiles of different solid forms were tested on a SMS Intrinsic instrument, UK. To make sure each sample particle size was uniform, all samples were screened at 100 mesh (ΦA = 0.148 mm). Samples of 10–20 mg were used in the experiments. The DVS data were collected in an RH range of 0–95%. If the sample mass changes by less than 0.02% in 60 min, the next RH is conducted in a 5% step.
On the set-up of data set [2]: method as in U.S. Expert Review Board. Particulars: adults; ref U.S. Expert Review Board; cited from earlier work.
Data set [3] is described as follows: Powder dissolution in SGF and SIF. Particulars: for solubility at 180 min: thermodynamic from solid, 50 rpm, read-out: maximum solubility. In kind it is physicochemical. How it is done:
CUR-L-CN dissolves quickly and reaches its maximum concentration in 20 min. […] To understand this phenomenon, the residual powders after dissolution experiments were filtered and dried for PXRD analysis.
A mini bath dissolution device was used in the experiments, and a Julabo-5 heater was equipped for heating. The experiments were conducted at 37 °C with a rotational speed of 50 rpm. […] The dissolution rate experiments were measured in SGF and SIF containing 0.5% tween 80. SGF was prepared by diluting 16.4 mL of 10% HCl solution to 1000 mL with pure water. To prepare SIF, 6.8 g of KH2PO4 was dissolved in 500 mL of water; then, the pH was adjusted to 6.8 with NaOH solution with a concentration of 0.1 mol/L. At specified time points, i.e., 5 min, 10 min, 15 min, 20 min, 25 min, 30 min, 40 min, 50 min, 60 min, 90 min, 120 min, and 180 min, 0.5 mL of solution was withdrawn with a syringe. The collected solution was filtered through a 0.45 µm nylon filter and then subjected to HPLC determination. The dissolution studies of each solid form were conducted in triplicate (n = 3). After dissolution experiments, the residual samples were filtered and dried under vacuum for PXRD analysis.
The equipment has a diode array detector. An Agilent Zorbax Eclipse Plus C18 column was used in the experiments; it has a diameter of 4.6 mm, a length of 150 mm, and a filling aperture of 5 µm. The mobile phase contained 52% glacial acetic acid (4%) aqueous solution and 48% acetonitrile. The column temperature was set as 35 °C, and the UV-vis wavelength was set to 430 nm. A 10 µL sample was injected each time and the flow rate of the mobile phase was aet as 1 mL/min.

The nature of data set [4]: Wettability test by film flotation. In kind it is physicochemical. How it is done:
To confirm the hypothesis given in the section discussing […] surface analysis, wettability tests using film flotation methods were conducted in SGF with/without surfactants. […] The wettability test was performed in pure SGF and SGF with 0.1% sodium dodecyl sulfonate (SDS) or tween 80 using film flotation methods.

Data set [5] can be described thus: Oral pharmacokinetic study in rats. In kind it is in vivo. Particulars: Sprague Dawley, rat, fasted male rats, oral 200 mg/kg in soybean oil, plasma treated with β-glucuronidase/sulfatase. How it is done: The in vivo pharmacokinetic investigations of the CUR-L-CN co-crystal and the marketed CUR crystal were carried out in fasted male rats. In vivo, CUR is easily conjugated, and it can be conjugated with glucuronic acid and sulfate to form monoglucuronides, monosulfates, and mixed glucuronide/sulfates.
After administration, approximately 0.4 mL of blood was collected from the orbit of the rats into heparinized tubes at 20 min, 40 min, 1 h, 1.5 h, 2.5 h, 4 h, 6 h, and 8 h. Plasma samples (100 μL) were precisely aspirated and vortexed with 50 μL of β-glucuronidase and sulfatase buffer at 37 °C for 60 min. Plasma samples were protein precipitated by adding 0.45 mL of methanol (0.2% acetic acid). After 10 min of shaking, the samples were centrifuged at 14,000 rpm for 3 min. Subsequently, the supernatants were analyzed via HPLC/MS. All experimental procedures were approved by the Animal Ethics Committee.
HPLC methods and conditions were the same as 4.13. A 10 µL sample was injected each time, and the flow rate of the mobile phase was set as 0.6 mL/min.
The AUC0–t was calculated from plasma concentrations observed from 0 to 8 h using a linear trapezoidal approach.

For data set [6] the following is noted: rats, intravenous and oral administration; cited from earlier work.

Values after ≈ are worked out from the molar mass of the structure shown. Where two headings read alike, the source gives them in different places.

The values below come from publication PMC11053631 (Pharmaceuticals, 2024).

Usually solubility stands for the dissolved amount per volume that the medium holds.

In turn, `C[N+](C)(C)C[C@H](O)CC(=O)[O-]` [L-CN, L-carnitine] gave a water uptake in data set [1] (at 40% RH) of 39.9%. Moreover, the “water uptake / water content” value in data set [1] (at 95% RH) came out at 174.2%. The “water that cannot be removed” value in data set [1] (when RH decreases to 0%) turned out to be 23.6%. For the same compound, the “dose rated as safe as nutritional supplement” value in data set [2] was 20 mg/kg/day.

Consider `COc1cc(/C=C/C(=O)CC(=O)/C=C/c2ccc(O)c(OC)c2)ccc1O` [CUR, Curcumin], for which, in data set [1] (during 0%-95% RH), the mass change entry was “nearly no mass change”. In addition, the “time to reach maximum concentration in dissolution” value in data set [3] (powder dissolution, 37 °C) was “continues to increase over 180 min”. For the same compound, the solubility at 180 min in data set [3] (simulated gastric fluid (SGF) with 0.5% tween 80, aqueous with cosolvent or surfactant or cyclodextrin, SGF containing 0.5% tween 80, 37 °C) is 48.2 µg/mL (≈ 131 µM); in data set [3] (simulated intestinal fluid (SIF) with 0.5% tween 80, aqueous with cosolvent or surfactant or cyclodextrin, SIF pH 6.8 containing 0.5% tween 80, 37 °C), 24.5 µg/mL (≈ 66.5 µM). Besides, the “wettability (powder sinking)” value is recorded as “only a small quantity of CUR had sunk” in data set [4] (SGF containing 0.1% SDS, after 10 min) and “could not sink into the fluid” in data set [4] (SGF without surfactant). For the same compound, the Cmax in data set [5] is 67.9 ng/mL. In data set [5], the Tmax is 1.5 h. For the same compound, the AUC(0-t) in data set [5] (0 to 8 h, read-out: AUC0–8) came to 110 ng·h/mL. The oral bioavailability result in data set [6] is “about 1%”.
